Reference: patent US11040981B2, “Pyrrolotriazine compounds and methods of inhibiting TAM kinases” (Syros Pharmaceuticals, Inc., priority 2017, dated 2021)
pIC50: −log10 of the molar value.

Tests used:
[1] = molecular target: T1, AXL (Homo sapiens, UniProt P30530); assay: TR-FRET kinase activity assay, AXL; type: biochemical; settings: ATP at Km, 60 minutes
T1 sequence (P30530 26-894): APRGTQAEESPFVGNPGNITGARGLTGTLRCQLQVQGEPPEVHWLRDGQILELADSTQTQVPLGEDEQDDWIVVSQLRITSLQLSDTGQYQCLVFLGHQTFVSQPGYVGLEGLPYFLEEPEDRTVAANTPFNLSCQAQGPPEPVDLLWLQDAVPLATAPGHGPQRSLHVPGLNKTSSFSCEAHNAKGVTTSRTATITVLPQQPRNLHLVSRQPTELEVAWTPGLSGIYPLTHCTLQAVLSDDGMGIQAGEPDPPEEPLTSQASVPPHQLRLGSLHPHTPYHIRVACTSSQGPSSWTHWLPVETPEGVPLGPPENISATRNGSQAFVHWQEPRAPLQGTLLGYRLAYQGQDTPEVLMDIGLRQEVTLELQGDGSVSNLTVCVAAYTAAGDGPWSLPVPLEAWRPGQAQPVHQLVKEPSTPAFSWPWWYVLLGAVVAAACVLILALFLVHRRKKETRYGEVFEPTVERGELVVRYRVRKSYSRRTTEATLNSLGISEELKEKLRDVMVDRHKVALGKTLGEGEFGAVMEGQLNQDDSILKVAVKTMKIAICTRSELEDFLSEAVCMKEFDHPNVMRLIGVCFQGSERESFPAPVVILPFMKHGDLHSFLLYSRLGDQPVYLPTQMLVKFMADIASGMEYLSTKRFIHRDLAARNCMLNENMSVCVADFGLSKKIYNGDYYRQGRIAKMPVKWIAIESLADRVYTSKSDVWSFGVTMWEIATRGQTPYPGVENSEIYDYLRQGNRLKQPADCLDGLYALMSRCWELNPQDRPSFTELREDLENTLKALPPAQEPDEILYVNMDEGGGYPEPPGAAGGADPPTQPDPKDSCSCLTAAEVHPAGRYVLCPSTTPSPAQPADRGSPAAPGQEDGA
Method in brief: (§1)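 Enzyme + labelled peptide + cpd premixed; ATP at per-enzyme Km starts rxn. 60 min RT, HEPES pH 7.5/MgCl2/EGTA/Brij 35/DTT buffer. Stop 12.5 mM EDTA, Eu phospho-Ab 30 min dark, TR-FRET read → IC50.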

[2] = molecular target: T2, FLT3 (Homo sapiens, UniProt P36888); assay: TR-FRET kinase activity assay, FLT3; type: biochemical; settings: ATP at Km, 60 minutes
T2 sequence (P36888 27-993): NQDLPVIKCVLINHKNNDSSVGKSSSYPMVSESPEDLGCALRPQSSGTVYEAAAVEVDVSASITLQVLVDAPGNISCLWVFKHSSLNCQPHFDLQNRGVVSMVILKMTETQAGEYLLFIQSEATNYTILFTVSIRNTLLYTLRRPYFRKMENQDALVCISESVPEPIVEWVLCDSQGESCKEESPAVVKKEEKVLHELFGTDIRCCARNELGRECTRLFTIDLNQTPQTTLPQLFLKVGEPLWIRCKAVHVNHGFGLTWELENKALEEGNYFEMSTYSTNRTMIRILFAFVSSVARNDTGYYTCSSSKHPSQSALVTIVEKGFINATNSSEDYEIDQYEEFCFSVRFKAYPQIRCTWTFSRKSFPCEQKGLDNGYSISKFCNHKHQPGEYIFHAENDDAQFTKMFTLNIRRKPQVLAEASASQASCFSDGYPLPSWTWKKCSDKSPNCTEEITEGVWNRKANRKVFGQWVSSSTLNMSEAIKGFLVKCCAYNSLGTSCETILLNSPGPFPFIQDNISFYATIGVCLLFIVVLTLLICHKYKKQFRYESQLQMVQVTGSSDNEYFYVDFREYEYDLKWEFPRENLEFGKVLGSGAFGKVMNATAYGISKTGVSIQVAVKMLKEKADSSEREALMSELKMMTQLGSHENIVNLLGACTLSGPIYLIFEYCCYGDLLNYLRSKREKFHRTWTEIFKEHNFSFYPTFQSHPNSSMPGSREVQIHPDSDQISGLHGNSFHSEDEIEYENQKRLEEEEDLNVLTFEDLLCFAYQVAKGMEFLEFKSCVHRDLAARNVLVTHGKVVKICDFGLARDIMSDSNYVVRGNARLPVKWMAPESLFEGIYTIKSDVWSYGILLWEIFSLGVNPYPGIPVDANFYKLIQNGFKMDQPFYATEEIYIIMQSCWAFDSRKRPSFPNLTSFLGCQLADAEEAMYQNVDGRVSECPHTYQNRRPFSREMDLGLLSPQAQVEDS
Method in brief: as §1

| Compound | pIC50 [1] | pIC50 [2] |
| --- | --- | --- |
| COC[C@H](C)Nc1ncc2c(-c3ccc(CN4CCOCC4)cc3)cc([C@H]3CC[C@H](NC(C)=O)CC3)n2n1 [Compound 300, N-((trans)-4-(2-(((S)-1-methoxypropan-2-yl)amino)-5-(4-(morpholinomethyl)phenyl)pyrrolo[2,1-f][1,2,4]triazin-7-yl)cyclohexyl)acetamide] | ≥ 7.00 | 6.00 to 7.00 |
| COC[C@H](C)Nc1ncc2c(-c3ccc(CN4CCOCC4)cc3)cc([C@H]3CC[C@H](NS(C)(=O)=O)CC3)n2n1 [Compound 301] | ≥ 7.00 | ≥ 7.00 |
| COC[C@H](C)Nc1ncc2c(-c3cnn(C4CN(CC(F)(F)F)C4)c3)cc([C@H]3CC[C@H](O)CC3)n2n1 [Compound 302] | ≥ 7.00 | 6.00 to 7.00 |
| COC[C@H](C)Nc1ncc2c(-c3cnn(CC4CNC(=O)C4)c3)cc([C@H]3CC[C@H](O)CC3)n2n1 (some centres unmarked) [Compound 303] | ≥ 7.00 | 6.00 to 7.00 |
| CNC(=O)c1cncc(-c2cc([C@H]3CC[C@H](O)CC3)n3nc(N[C@@H](C)CC(F)(F)F)ncc23)c1 [Compound 304] | ≥ 7.00 | 5.00 to 6.00 |
| COC[C@H](C)Nc1ncc2c(-c3cnn(Cc4cnccn4)c3)cc([C@H]3CC[C@H](O)CC3)n2n1 [Compound 305] | ≥ 7.00 | 6.00 to 7.00 |
| COC[C@H](C)Nc1ncc2c(-c3cnn(Cc4cnc(C)cn4)c3)cc([C@H]3CC[C@H](O)CC3)n2n1 [Compound 306] | ≥ 7.00 | 6.00 to 7.00 |
| CNC(=NC#N)N[C@H]1CC[C@H](c2cc(-c3ccc(CN4CCOCC4)cc3)c3cnc(N[C@@H](C)COC)nn32)CC1 [Compound 307] | ≥ 7.00 | ≥ 7.00 |
| COC[C@H](C)Nc1ncc2c(-c3cc(C)nc(C)c3)cc([C@H]3CC[C@H](O)CC3)n2n1 [Compound 308] | 6.00 to 7.00 | 5.00 to 6.00 |
| Cc1cc(-c2cc([C@H]3CC[C@H](O)CC3)n3nc(N[C@@H](C)C(F)F)ncc23)ccn1 [Compound 309] | ≥ 7.00 | 6.00 to 7.00 |
| C[C@@H](CC(F)(F)F)Nc1ncc2c(-c3cncc(C(=O)N(C)C)c3)cc([C@H]3CC[C@H](O)CC3)n2n1 [Compound 310] | ≥ 7.00 | 6.00 to 7.00 |
| C[C@@H](CC(F)(F)F)Nc1ncc2c(-c3cncc(C(=O)N4CCOCC4)c3)cc([C@H]3CC[C@H](O)CC3)n2n1 [Compound 311] | ≥ 7.00 | 6.00 to 7.00 |
| Cc1nnc(Cn2cc(-c3cc([C@H]4CC[C@H](O)CC4)n4nc(N[C@@H](C)COC(F)F)ncc34)cn2)o1 [Compound 312] | ≥ 7.00 | ≥ 7.00 |
| Cc1cc(-c2cc([C@H]3CC[C@H](O)CC3)n3nc(N[C@@H](C)COC(F)F)ncc23)ccn1 [Compound 313] | ≥ 7.00 | 6.00 to 7.00 |
| COC[C@H](C)Nc1ncc2c(-c3cnn(Cc4ccc(S(C)(=O)=O)cc4)c3)cc([C@H]3CC[C@H](O)CC3)n2n1 [Compound 314] | ≥ 7.00 | ≥ 7.00 |
| COC[C@H](C)Nc1ncc2c(-c3cnn([C@@H]4CCNC4=O)c3)cc([C@H]3CC[C@H](O)CC3)n2n1 [Compound 315] | ≥ 7.00 | 6.00 to 7.00 |
| CNc1c(N[C@H]2CC[C@H](c3cc(-c4ccc(CN5CCOCC5)cc4)c4cnc(N[C@@H](C)COC)nn43)CC2)c(=O)c1=O [Compound 316, 3-(((trans)-4-(2-(((S)-1-methoxypropan-2-yl)amino)-5-(4-(morpholinomethyl)phenyl)pyrrolo[2,1-f][1,2,4]triazin-7-yl)cyclohexyl)amino)-4-(methylamino)cyclobut-3-ene-1,2-dione] | ≥ 7.00 | ≥ 7.00 |
| CNC(=O)c1ccc(-c2cc([C@H]3CC[C@H](O)CC3)n3nc(N[C@@H](C)COC)ncc23)cn1 [Compound 317] | ≥ 7.00 | ≥ 7.00 |
| COC[C@H](C)Nc1ncc2c(-c3cnn(C(C)(C)C(=O)N4CCC5(COC5)C4)c3)cc([C@H]3CC[C@H](O)CC3)n2n1 [Compound 318] | ≥ 7.00 | 5.00 to 6.00 |
